This is an account of results in ChEMBL document CHEMBL6109099, “Design, synthesis and biological evaluation of novel hydroxamic acid-derived histone deacetylase inhibitors bearing a 2-oxoindoline scaffold as potential antitumor agents” (Bioorg Med Chem, 2025).

Usually IC50 stands for the concentration needed to halve the response being measured.

The subject of the first data set is HCT-116. The data set is described as follows: Cytotoxicity against human HCT-116 cells assessed as reduction in cell viability by SRB assay. The class given is functional, cell-based. (Sulforhodamine B stains cellular protein and so reports cell mass.)
As to `O=C(/C=C/c1ccc(CN2C(=O)Cc3cc(Br)ccc32)cc1)NO`, the IC50 stood at 3.19 µM.
On to `COc1ccc2c(c1)CC(=O)N2CCCCCCC(=O)NO`, for which the IC50 amounted to 6.44 µM.
Still for that read-out and setting: in the case of `O=C(NO)c1ccc(CN2C(=O)Cc3ccccc32)cc1` it was 7.22 µM.
Take `O=C(CCCCCCN1C(=O)Cc2cc(F)ccc21)NO`: the IC50 worked out at 3.95 µM.
For `O=C(CCCCCCN1C(=O)Cc2cc(Br)ccc21)NO`, the IC50 is 9.96 µM.
On the same count and under the same terms, in the case of `COc1ccc2c(c1)CC(=O)N2Cc1ccc(C(=O)NO)cc1` it was 3.62 µM; in that of `O=C(/C=C/c1ccc(CN2C(=O)Cc3cc(F)ccc32)cc1)NO`, 7.46 µM.
As to `O=C(/C=C/c1ccc(CN2C(=O)Cc3ccccc32)cc1)NO`, the half-maximal inhibitory concentration (IC50) came out at 5.72 µM.
For the molecule `COc1ccc2c(c1)CC(=O)N2Cc1ccc(/C=C/C(=O)NO)cc1`, the IC50 came to 3.18 µM.

For the next data set, the target named is Histone deacetylase. The data set is described as follows: Inhibition of HDAC in human HeLa cells nuclear extract. The format is subcellular, Nucleus.
`O=C(/C=C/c1ccc(CN2C(=O)Cc3cc(Br)ccc32)cc1)NO` showed an IC50 of 0.698 µM.
On the same count and under the same terms, in the case of `COc1ccc2c(c1)CC(=O)N2CCCCCCC(=O)NO` it was 0.025 µM; in that of `O=C(NO)c1ccc(CN2C(=O)Cc3ccccc32)cc1`, 0.477 µM; in that of `O=C(CCCCCCN1C(=O)Cc2cc(F)ccc21)NO`, 0.047 µM.
With `O=C(CCCCCCN1C(=O)Cc2cc(Br)ccc21)NO`, the half-inhibitory concentration (IC50) was under 0.001 µM.
`COc1ccc2c(c1)CC(=O)N2Cc1ccc(C(=O)NO)cc1` gave a half-inhibitory concentration (IC50) of 2.735 µM.
Take `O=C(/C=C/c1ccc(CN2C(=O)Cc3cc(F)ccc32)cc1)NO`: the half-inhibitory concentration (IC50) amounted to 5.012 µM.
On the same count and under the same terms, in the case of `O=C(/C=C/c1ccc(CN2C(=O)Cc3ccccc32)cc1)NO` it was 2.316 µM; in that of `COc1ccc2c(c1)CC(=O)N2Cc1ccc(/C=C/C(=O)NO)cc1`, 1.043 µM.

The test system of a further data set is SW-620. The data set is described as follows: Cytotoxicity against human SW620 cells assessed as reduction in cell viability by SRB assay. The class given is functional, cell-based.
Take `O=C(/C=C/c1ccc(CN2C(=O)Cc3cc(Br)ccc32)cc1)NO`: the IC50 worked out at 5.21 µM.
With `COc1ccc2c(c1)CC(=O)N2CCCCCCC(=O)NO`, the half-inhibitory concentration (IC50) is 6.02 µM.
Consider `O=C(NO)c1ccc(CN2C(=O)Cc3ccccc32)cc1`, for which the IC50 came to 8.18 µM.
On to `O=C(CCCCCCN1C(=O)Cc2cc(F)ccc21)NO`, for which the IC50 worked out at 5.71 µM.
Consider `O=C(CCCCCCN1C(=O)Cc2cc(Br)ccc21)NO`, for which the IC50 came to 12.3 µM.
Take `COc1ccc2c(c1)CC(=O)N2Cc1ccc(C(=O)NO)cc1`: the 50% inhibitory concentration (IC50) is 8.9 µM.
On to `O=C(/C=C/c1ccc(CN2C(=O)Cc3cc(F)ccc32)cc1)NO`, for which the IC50 stood at 14.2 µM.
Still for that read-out and setting: the same measure for `O=C(/C=C/c1ccc(CN2C(=O)Cc3ccccc32)cc1)NO`: 7.36 µM; for `COc1ccc2c(c1)CC(=O)N2Cc1ccc(/C=C/C(=O)NO)cc1`: 10.2 µM.

Tested on in another data set: not listed separately
The data set is described as follows: Cytotoxicity against human MRC5 cells assessed as reduction in cell viability by SRB assay.
Regarding `O=C(/C=C/c1ccc(CN2C(=O)Cc3cc(Br)ccc32)cc1)NO`, the IC50 amounted to 48.7 µM.
Same read-out and setting: in the case of `COc1ccc2c(c1)CC(=O)N2CCCCCCC(=O)NO` it was 24.6 µM.
As for `O=C(NO)c1ccc(CN2C(=O)Cc3ccccc32)cc1`, the IC50 was over 100 µM.
Same read-out and setting: the same measure for `O=C(CCCCCCN1C(=O)Cc2cc(F)ccc21)NO`: 57.3 µM; for `O=C(CCCCCCN1C(=O)Cc2cc(Br)ccc21)NO`: 30.1 µM.
In the case of `COc1ccc2c(c1)CC(=O)N2Cc1ccc(C(=O)NO)cc1`, the half-inhibitory concentration (IC50) is 41.4 µM.
As for `O=C(/C=C/c1ccc(CN2C(=O)Cc3cc(F)ccc32)cc1)NO`, the concentration for half-maximal inhibition (IC50) was over 100 µM.
Same read-out and setting: the same measure for `O=C(/C=C/c1ccc(CN2C(=O)Cc3ccccc32)cc1)NO`: over 100 µM.
The same measure, in the same setting: in the case of `COc1ccc2c(c1)CC(=O)N2Cc1ccc(/C=C/C(=O)NO)cc1` it was over 100 µM.
